Experimental data taken from publication PMC12040169 (PLOS Biology, 2025).

assay: in vitro; conditions: human, hela cells, % viability

Compound | viability at 28.5 h, 10 µM
CCc1nnc(NS(=O)(=O)c2ccc(OC(F)(F)F)cc2)s1 [CBK026672] | 91.7%
O=C(Cn1ccnc1)Nc1ccccc1Oc1ccc(F)cc1 [CBK281455] | 90.1%
Cc1cc(CC(=O)NCCCn2ccnc2C(C)C)on1 [CBK307270] | 99.7%
CN(CC(=O)Nc1nnc[nH]1)S(=O)(=O)c1ccc(Br)cc1 [CBK268618] | 91.1%
COc1ccc(Br)c(C(=O)N(C)Cc2cnn(C)c2)c1 [CBK305142] | 97.7%
Cc1cccc(OCC2CCCN(C(=O)CCc3nncn3C)C2)c1 (centres unmarked) [CBK306640] | 88.8%
Cc1cc(S(=O)(=O)Nc2ccccc2-c2nncn2C)c(C)o1 [CBK306414] | 85.9%
CCCc1cc(O)nc(SCC(=O)Nc2cc3c(cc2C(C)=O)OCO3)n1 [CBK266144] | 92%
COc1cc(NC(=O)COc2ccc3ccccc3c2)c(C(=O)O)cc1OC [CBK264181] | 103%
CCc1[nH]c2ccc(C(=O)NC3CCCOC3)cc2c1C (centres unmarked) [CBK283247] | 95.9%
COc1ccc(CN2CCOCC2CC(=O)O)cc1Cn1cncn1 (centres unmarked) [CBK307220] | 92.7%
Cc1ccc(/C=C/C(=O)O)cc1S(=O)(=O)NCCO [CBK264404] | 93.2%
COC(=O)c1ccc(S(=O)(=O)n2ccn(-c3cccc(C(F)(F)F)c3)c2=O)n1C [CBK106594] | 90.1%
N#Cc1cc2c(nc1SCC(O)COCc1ccccc1)CCCC2 (centres unmarked) [CBK265967] | 104%
CCc1nn(CC(=O)N2CCCC(C)C2)c(=O)c2cc3occc3n12 (centres unmarked) [CBK283657] | 79.3%
Cn1cc(-c2nccnc2OCc2ccccn2)cn1 [CBK107067] | 97.2%
CCCCc1ccc(NS(=O)(=O)c2ccc(C)c(C(=O)O)c2)cc1 [CBK296111] | 116%
CN(Cc1ccccc1)c1nccnc1-c1ccccc1Cl [CBK037502] | 103%
CC(=O)c1ccc(-c2cc(C(=O)NCCc3cccnc3)cnc2-c2ccc(F)cc2)s1 [CBK036614] | 102%
CC(C)(C)c1ccc(-n2cc(-c3ccc(Cl)cc3)nn2)cc1 [CBK113031] | 102%
Cc1ccc(C2c3c(O)n[nH]c3CC(C)(O)C2C(=O)OCc2ccccc2)cc1 (centres unmarked) [CBK269417] | 92.8%
CC(Cc1cccs1)NC(=O)C(C)n1ccnc1 (centres unmarked) [CBK282050] | 89.9%

Compound | viability at 28.5 h, 10 µM
Nc1nc(SCCCN2C(=O)c3cccc4cccc(c34)C2=O)nc2sc3c(c12)CCCC3 [CBK264433] | 99.1%
CC[C@H](Cn1ncc2ccccc2c1=O)NC(=O)c1ccc2c(c1)Sc1ccccc1O2 [CBK286173] | 81.3%
CN1CCN(C(=O)CNC(=O)CNS(=O)(=O)c2ccccc2)CC1 [CBK268651] | 90.9%
CC1(C)O[C@@H]2O[C@@H](C(O)CNC(=O)c3ccccc3)[C@@H](O)[C@@H]2O1 (some centres unmarked) [CBK008736] | 87%
NC(=O)C1CCN(CC(=O)Nc2ccc([N+](=O)[O-])cc2C(=O)c2ccccc2)CC1 [CBK265782] | 89.3%
O=C(c1ccsc1NS(=O)(=O)c1cc(Cl)sc1Cl)N1CCOCC1 [CBK042288] | 92.5%
Cc1cc(C)n(C(C)CC(=O)N2CCN(C)CC2c2ccccc2)n1 (centres unmarked) [CBK282014] | 92.2%
CC12CCC(C(=O)Nc3ccccc3)(OC1=O)C2(C)C (centres unmarked) [CBK018129] | 96.4%
Cc1cc(CNS(=O)(=O)c2cccc3nonc23)no1 [CBK062263] | 106%
COc1ccccc1OCC(=O)NNC(=O)c1cnccn1 [CBK262617] | 109%
CC(C)C(NC(=O)N1c2ccccc2NC(=O)C1C(C)C)C(=O)O (centres unmarked) [CBK286670] | 100%
O=C(COc1ccc2ccccc2c1)OCC(=O)c1ccc([N+](=O)[O-])cc1 [CBK261586] | 88.2%
O=C(Cn1c(-c2cccs2)cc2cccnc21)N1CCC(O)CC1 [CBK282458] | 113%
CC(C)c1nnc(SCc2ccc(CSc3nnc(C(C)C)n3N)cc2)n1N [CBK267911] | 101%
S=C(NCCCN1CCOCC1)Nc1ccccc1Cl [CBK264599] | 100%
CN1CCN(c2ccccc2NC(=O)c2ccc3c(c2)OCCO3)CC1 [CBK268072] | 101%
COc1ccc(C(C)NC2CCN(c3ccccn3)CC2)cc1F (centres unmarked) [CBK304146] | 86.8%
Cc1cc(Cl)ccc1OCC(=O)Nc1nnc[nH]1 [CBK287940] | 86.3%
CCC1CCCCN1C(=O)c1cc(C)ccc1F (centres unmarked) [CBK082754] | 108%
Cc1cc(=O)n2c(-c3ccc(NS(=O)(=O)c4cccnc4)cc3)csc2n1 [CBK287837] | 91.6%
NC(CC(=O)O)c1ccc(F)c(Oc2ccccc2)c1 (centres unmarked) [CBK286912] | 101%
CN(C)CCN(C)c1cccc(/C=C/c2ccccc2)n1 [CBK036826] | 109%

Compound | viability at 28.5 h, 10 µM
CCCn1nccc1C(=O)NC1CCCN(Cc2cccc(OC)c2)C1 (centres unmarked) [CBK306563] | 84.9%
O=C(O)c1cccc2c1C(=O)N(Cc1ccccc1F)C2 [CBK291172] | 86.8%
O=C(CCc1cccnc1)N1CCCCC1c1nc2cc(F)ccc2[nH]1 (centres unmarked) [CBK291106] | 112%
O=C(OCCC1SC(NC2CC3C=CC2C3)=NC1=O)c1c(F)cccc1F (centres unmarked) [CBK200057T] | 89.7%
Cc1ccccc1-c1ccc(C(=O)NCCc2ccc(S(N)(=O)=O)cc2)c(NCc2cccnc2)n1 [CBK076116] | 98.4%
O=C1CC2(C(=O)N1CCC1CCCCC1)C(=O)N(Cc1ccccc1)c1ccc(F)cc12 (centres unmarked) [CBK075175] | 91%
CCc1ccc(Nc2nc(N)nc(CN3CCN(c4ccccn4)CC3)n2)cc1 [CBK270064] | 102%
O=C(O)CCNc1ccc(Br)cc1C(=O)O [CBK087259] | 96.9%
O=C(Cn1cccc2cc(C3CCCNC3)nc1-2)N1CCCC1 (centres unmarked) [CBK285086] | 88.7%
Cc1cc(C)nc(NC(=N)NCc2ccccc2)n1 [CBK288157] | 94.2%
CN(C)CC(=O)N1Cc2cccc3c2c(cn3S(=O)(=O)c2ccccc2)C1 [CBK155548T] | 94.5%
O=C(CCc1ccccc1F)NC1CCc2nccn2C1 (centres unmarked) [CBK306124] | 113%
O=C(c1ccc(-c2cncc(-c3cc4ccccc4[nH]3)c2)cc1)N1CCOCC1 [CBK158419T] | 76.1%
COCCSc1nnc(NS(=O)(=O)c2ccc(F)cc2)s1 [CBK144919] | 87.1%
C=CCOc1ccc(CNCCN2CCOCC2)cc1 [CBK278215C] | 94.3%
CC(C)(C)C(=O)Nc1ccc(-c2nc3ccc(Cc4ccc5nc(-c6ccc(NC(=O)C(C)(C)C)cc6)oc(=O)c5c4)cc3c(=O)o2)cc1 [CBK261396] | 104%
COCC1CCCN(S(=O)(=O)c2cnc3ccsc3c2)C1 (centres unmarked) [CBK306397] | 66.6%
COCCn1c(SCc2nc3ccccc3nc2C)nc(C)c1C [CBK305651] | 106%
COc1ccc(CCCC(=O)Nc2cncc(OC3CCNCC3)n2)cc1OC [CBK028437T] | 87.3%
CC(=O)c1ccc(NC(=O)CSc2nc(O)cc(-c3ccccc3)n2)cc1 [CBK269048] | 96%
CN1CCN(C(=O)c2ccc(NS(=O)(=O)c3ccc(Oc4ccccc4)cc3)cc2)CC1 [CBK034559] | 97.4%
CN(C)c1ccc(CN(CCO)CCO)cc1 [CBK261921] | 88.3%

Compound | viability at 28.5 h, 10 µM
COCCOCC(=O)N1CCC2(C/C=C/C[C@H]3COCC[C@H]3NC(=O)CNC2=O)CC1 [CBK292170] | 105%
CS(=O)(=O)Nc1ccc(-c2ccc3c(c2)CCO3)c2ccccc12 [CBK083753] | 76.5%
CC(=O)N1CCN(CC[C@@H]2CC[C@H](O)[C@@H](C(=O)N(C)Cc3ccccc3)O2)CC1 [CBK288716] | 93.3%
O=C(c1ccccc1F)N1C[C@H](c2ccsc2)[C@H]2CN(Cc3cccc(F)c3)CC[C@H]21 [CBK285660] | 120%
CC(=O)Nc1ccc(/C=N/NC(=O)CN2CCCCCCC2)cc1 [CBK261617] | 88.8%
Cc1cc(C)nc(Nc2n[nH]c(COc3ccccc3)n2)n1 [CBK268016] | 93.2%
COc1ccc(CC(=O)NC(CCSC)c2nnc3ccccn23)cc1 (centres unmarked) [CBK306077] | 96%
CCCCc1ccc(NC(=O)Nc2ccc3ccc(Cl)nc3n2)cc1 [CBK063259] | 114%
Cn1ccnc1CNC(=O)c1cccc(OCC(=O)N2CCCCC2)c1 [CBK306635] | 86.8%
O=C(c1ccno1)N1CCc2ccccc21 [CBK200409] | 104%
C=CCn1c(SCC(=O)N2c3ccccc3C(C)(c3ccccc3)CC2(C)C)nnc1-c1ccncc1 (centres unmarked) [CBK059171] | 83.3%
COc1ccc(-c2nnc3c4ccccc4c(C)nn23)cc1S(=O)(=O)N1CCCCC1 [CBK266640] | 110%
CC(NC(=O)c1ccc(-n2cccc2)cc1)c1ccccn1 (centres unmarked) [CBK296619] | 91.4%
COc1ccccc1Cc1cccc(C2CCCN2C(=O)CCc2ccccc2)n1 (centres unmarked) [CBK286229] | 108%
CCOC(=O)N1CCN(Cc2ccc(O)c(OC)c2)CC1 [CBK261873] | 98.5%
COc1ccccc1-c1ncc(OC2CCN(C)C2)nc1N (centres unmarked) [CBK145081] | 92.4%
CC(C)(C)OC(=O)c1cc(C(=O)O)ccc1O [CBK000394] | 90%
CCC(CN1CCCC1)NC(=O)Cc1cc(C)ccc1OC (centres unmarked) [CBK282759] | 83.2%
CCN(CC)c1nc(Cl)c(C#N)c2c1CN(C)CC2 [CBK009140] | 99.2%
CCCCn1c(SCC(O)COCc2ccc(OC)c(OC)c2)n[nH]c1=O (centres unmarked) [CBK296653] | 99.3%
CC(=O)N(C)c1ccc(NC(=O)/C=C/C(=O)O)cc1 [CBK287162] | 87%
Cc1ccccc1N1C(=O)/C(=C/c2cn(Cc3ccccc3[N+](=O)[O-])c3ccccc23)SC1=S [CBK265101] | 101%

same assay, conditions: human, hela cells, % viability, bulk resorufin, single well

Compound | viability at 28.5 h, 10 µM
CC(=O)N1CCC2(CC1)OCc1cc(-c3ccc(Cl)cc3)ccc1O2 [CBK060974] | 113%
